What was measured:
Assay type in all cases: functional, organism-based
[1] = system: Entamoeba histolytica; assay: Inhibitory concentration against Entamoeba histolytica (HK-9) for antiprotozoal activity
[2] = system: Giardia intestinalis; assay: Inhibitory concentration against G. Lamblia (IMSS-0989) for antigiardial activity; conditions: Giardia duodenalis
[3] = system: Trichomonas vaginalis; assay: Inhibitory concentration against Trichomonas vaginalis (tv-43) for anti-trichomonal activity

Structure (SMILES)	IC50 [1]	IC50 [2]	IC50 [3]
CC(C)/N=C(\S)N/N=C/c1ccc([N+](=O)[O-])s1	9.6 µM	26.2 µM	5.94 µM
CC(C)CN(CC(C)C)/C(S)=N/N=C/c1ccc([N+](=O)[O-])s1	11.6 µM	12 µM	4.44 µM
CN(/C(S)=N/N=C/c1ccc([N+](=O)[O-])s1)C1CCCCC1	8.3 µM	11.7 µM	18.3 µM
O=[N+]([O-])c1ccc(/C=N/N=C(\S)N2CCCCCC2)s1	1.71 µM	8.47 µM	8.78 µM
Cc1ncc([N+](=O)[O-])n1CCO [METRONIDAZOLE]	2.1 µM	1.16 µM	1.92 µM

Next, values leading:

IC50 [1]	IC50 [2]	IC50 [3]	Structure (SMILES)
12.2 µM	17.2 µM	1.49 µM	CCCC/N=C(\S)N/N=C/c1ccc([N+](=O)[O-])s1
2.86 µM	33 µM	3.97 µM	O=[N+]([O-])c1ccc(/C=N/N=C(\S)NC2CCCC2)s1
13.5 µM	33.3 µM	6.31 µM	CC(C)C/N=C(\S)N/N=C/c1ccc([N+](=O)[O-])s1
2.41 µM	13.9 µM	10.7 µM	O=[N+]([O-])c1ccc(/C=N/N=C(\S)NC2CCCCC2)s1
6.4 µM	8.2 µM	4.06 µM	CCCN(CCC)/C(S)=N/N=C/c1ccc([N+](=O)[O-])s1
15.4 µM	57.3 µM	21 µM	CCC/N=C(\S)N/N=C/c1ccc([N+](=O)[O-])s1
10.1 µM	8.03 µM	6.01 µM	CCN(CC)/C(S)=N/N=C/c1ccc([N+](=O)[O-])s1
